One assay deals with MN9D cells. As to the kind of experiment: intracellular ATP concentration in dopaminergic neuronal cells. Type of assay: cell-based. Conditions: 5 μM. Here is the method:
(§1) Dopaminergic (MN9D) and non-dopaminergic (MN9X) neuronal cells were treated with 5 μM pyran-1,2-naphthoquinone and the ATP concentration was periodically measured.

Another assay deals with MN9X cells. As to the kind of experiment: intracellular ATP concentration in non-dopaminergic neuronal cells. The class given is cell-based. The note with it: 5 μM. Here is the method: as §1
In assay [1] the test system is mRNAs in liver, adipose and muscle tissues. As to the kind of experiment: real-time quantitative PCR / microarray of gene expression in tissues of DIO mice. The class given is in vivo, mouse. Here is the method: Animals were continuously fed high-fat diet pellets for 3 to 4 weeks, thereby establishing DIO mice. Mice were raised in a breeding room with a 12 h/12 h light/dark D) cycle. Animals were divided into three groups, i.e., a group with administration of physiological saline (n=3), a group with administration of a vehicle (n=5) and a group with administration of 50 mg/kg of a candidate compound (n=7). Samples were orally administered to animals every day. On Days 7, 28 and 56, each tissue was removed, frozen in liquid nitrogen, and stored at […] for short and long periods of time.
On Days 7, 28 and 56, liver, adipose and muscle tissues were isolated from two groups of diet-induced DIO mice and total RNAs were extracted using Trizol. cDNAs were synthesized using 1 μg of total RNAs, and polymerase used for PCR was prepared using M-MLV polymerase according to a method instructed by the manufacturer. Real-time quantitative PCR was carried out using the prepared cDNAs.
A cDNA microarray analysis was carried out using an affymetrix mouse genome 430A 2.0 array chip. Using trizol, about 13 μg of total RNA was extracted in a concentration of more than 1 μg/1 μl from liver, adipose and muscle tissues of DIO mice on Days 7, 28 and 56, followed by a microarray analysis. Functional classification was made using NetAffx which is available from the Affymetrix website.
Adipose, liver or muscle tissues were pooled from male mice treated with a vehicle or a candidate compound for 4 weeks and the pooled tissues were subjected to microarray analysis. Total RNA was prepared from the tissues homogenized with a Trizol reagent (Invitrogen, Carlsbad, Calif.). Probes for the microarray analysis were prepared from 10 μg of the total RNA, and hybridized to Mouse 430A GeneChips (Affymetrix, Santa Clara, Calif.). The hybridized array was scanned, and raw data was extracted using Microarray Analysis Suite 5.0 (Affymetrix). For PCR quantitation, 1 μg of total RNA was reversely transcribed into cDNA using Superscript II and oligo(dT) primers. The constructed cDNA was amplified with the LightCycler FastStart DNA Master SYBR Green I kit and LightCycler, according to the manufacturer's instruction (Roche Diagnostics, Indianapolis, Ind.). Expression data were normalized to β-actin expression.
In order to investigate anti-obesity effects of an NQO1 activator, the NQO1 activator was administered daily to DIO mice at a dose of 50 mg/kg via an oral route, and an attempt was made to confirm levels of mRNAs of acetyl CoA carboxylase (ACC) 1, ACC2, fatty acid synthase (FAS), lipoprotein lipase (LPL), and stearoyl-CoA desaturase 1 (SCD1), which participate in lipid metabolism in the hepatic and gonadal adipose tissues, by real-time quantitative PCR. These enzymes are very important for lipid metabolism; it is known that ACC catalyzes formation of malonyl CoA from acetyl CoA, FAS catalyzes formation of palmitate from malonyl CoA, and SCD1 catalyzes formation of monounsaturated fat, thus playing a critical role in formation of triacylglycerol, a major energy store. Therefore, these enzymes are closely correlated with obesity, diabetes, and lipid metabolism-related diseases. […] Therefore, from the results of such increased or decreased expression of genes for the above-mentioned enzymes, it can be inferred that NQO1 will be feasible as a therapeutic target for the treatment of metabolic diseases.
In order to investigate effects of βL on the expression of genes involved in glucose and fat metabolism in liver, skeletal muscle and white adipose tissue (WAT), experiments were caned out using gene expression microarray analysis and mouse A42 Affymetrix GeneChip.

Assay [2] can be described thus: spontaneous locomotor activity. The class given is in vivo, mouse. Conditions: C57BL/6 DIO mice, 3 hours after administration, measured for 7 hours. The method, then: Pyrano-1,2-naphthoquinone was administered to C57BL/6 DIO mice, and 3 hours later spontaneous locomotor activity was measured using Versa MAX Activity Monitors & Analyzer (AccuSan Instruments, Columbus, Ohio, USA). […] In order to distinguish between spontaneous locomotor and stereotypic/grooming behavior, animal activity was measured by taking continuous interference of two different scanning lines caused by mice as an effective determination standard. The pyrano-1,2-naphthoquinone-administered group, the vehicle-administered group and the control group were respectively placed in each measuring apparatus, and activity and motion of animals were measured for 7 hours. For acclimation of the animals to the new environment, mice were placed in the apparatus 2 hours prior to measurement.

Assay [3] is described as follows: Respiratory Quotient and indirect calorimetry. Type of assay: in vivo, mouse. The method, then:
O2 consumption of animals was recorded by a known method. For indirect calorimetry, mice were individually housed in calorimetry chambers (Oxymax OPTO-M3 system; Columbus Instruments, Columbus, Ohio). Animals were allowed to acclimate to a new environment for 48 hours prior to the experiment, and amounts of O2 consumption and CO2 production were measured for […] every 30 minutes. Mice were given free access to food and drinking water during the first 24 h period, and animals were given access to drinking water only during the second 24 h period. Blood samples were taken from a heparinized tube, immediately placed on ice, centrifuged and stored at −20[…] for future use. Enzymatic colorimetry was employed for quantification of triglyceride (TG), total cholesterol, free fatty acids, and glucose (Beckman Instruments, CA). Plasma insulin (Linco Research, MO), TNFα (R&D System), adiponectin (Linco Research, MO), resistin (KOMED) and leptin (Linco Research, MO) were quantified by ELISA.
This Example was intended to examine effects of pyran-1,2-naphthoquinone on fat metabolism via measurement of Respiratory Quotient (RQ). Oxygen consumption and carbon dioxide production were measured using an Oxyscan open-circuit indirect calorimeter (AccuScan Instruments, Columbus, Ohio). This apparatus consisted of enclosed acrylic chambers (21×21×21 cm). Fresh air was drawn into each chamber at a rate of 1500 mL/min and then O2 and CO2 were allowed to pass through detectors. The concentrations of the gases were recorded in mL/kg body weight/min. RQ was calculated as the volume of CO2 produced (VCO2) divided by the volume of O2 consumed (VO2). A pyrano-1,2-naphthoquinone-administered group, a vehicle-administered group and a control group were placed in each apparatus, and RQ was measured for 7 hours. For acclimation of the animals to the new environment, mice were placed in the apparatus 2 hours prior to measurement.

The mark [4] stands for this setting: DIO mice, 50 mg/kg daily oral, liver and gonadal adipose tissues.
Setting [5] is: gonadal adipose tissues, Days 7, 28 and 56, 50 mg/kg daily oral.

The structures appear in SMILES notation.

In the case of `CC1(C)CCC2=C(O1)c1ccccc1C(=O)C2=O` [βL, 2,2-Dimethyl-3,4-dihydro-2H-benzo[h]chromene-5,6-dione], in the assay with MN9D cells, the “intracellular ATP concentration” value is recorded as “decreased”. The “intracellular ATP concentration” value in the assay on MN9X cells is recorded as “decreased”. For the same molecule, in assay [1] (DIO mice, 50 mg/kg daily oral), the “LPL mRNA level increase compared to control” value is recorded as “approximately 2 fold”; the “increase in mRNA levels of PPAR gamma” value is recorded as “two-fold”; the “mRNA of PPAR alpha” value is reported as “not changed”; the “mRNAs of AOX, AMPK alpha 1, AMPK alpha 2 and carnitine palmitoyltransferase 1” value is listed as “increased levels”. Also, the “expression levels of mRNAs of ACC1 and ACC2, FAS, LPL, and SCD1” value in assay [1] (DIO mice, 50 mg/kg daily oral, hepatic and gonadal adipose tissues) is “remarkably decreased”. Besides, in assay [1] (setting [4]), the “HK2 mRNA level” value was “decreased”; the “mRNA levels of UCP1 & 2” value is “significant increases”; the “mRNAs of GLUT2 and GLUT4” value is reported as “significant increases”; the “mRNAs of PGC1α, NRF1, mtTFA, COX4 and COX7” value is listed as “increased levels of mRNAs for all enzymes”. The “expression of LPL, ATGL, PPARα, SIRT1, Glut2 and Glut4” value in assay [1] (adipose tissues, vs vehicle-treated mice) is reported as “higher”. In assay [1] (setting [5]), the “transcripts of SIRT1, SIRT3 and SIRT6” value is on record as “significantly increased”; the “transcripts of SIRT2, SIRT5 and SIRT7” value is “did not exhibit any noticeable difference”. Besides, the “expression of PGC-1α and NRF-1” value in assay [1] (liver and muscle, βL-treated vs vehicle-treated mice) was “significantly induced”. In addition, in assay [1] (muscle), the “expression of COX4, COX7, AOX, UCP2 and UCP3” value is “strongly upregulated”; the “expression of GLUT 2 and GLUT 4” value is given as “induced”. Moreover, the “expression of Sirt1 and Sirt3” value in assay [1] (muscle and WAT) is recorded as “induced”. Besides, the spontaneous locomotor activity entry in assay [2] was “significant difference in the motion and activity of animals”. In addition, in assay [3] (measured for 7 hours, vs vehicle-administered and control group), the “Respiratory Quotient (RQ)” value is recorded as “significant difference in a RQ value”. For the same molecule, the “oxygen consumption (indirect calorimetry)” value in assay [3] (βL-treated mice) is “increases in night-time and day-time oxygen consumption”. Further, in assay [3] (βL-treated mice vs control group), the energy consumption entry was “higher energy consumption”.

(Values after US20140106387A1, “METHOD FOR CONTROLLING NAD(P)/NAD(P)H RATIO BY OXIDOREDUCTASE” (MD BIOALPHA CO., LTD., priority 2006, published 2014).)
